Measured values reported in ChEMBL document CHEMBL4507268 (2021).

Legend:
Settings in all cases: Compound concentration 1.0 uM
[1] = biological target: T1, Serine/threonine-protein kinase BRSK1 (Homo sapiens) (UniProt Q8TDC3)
T1 sequence (whole entry): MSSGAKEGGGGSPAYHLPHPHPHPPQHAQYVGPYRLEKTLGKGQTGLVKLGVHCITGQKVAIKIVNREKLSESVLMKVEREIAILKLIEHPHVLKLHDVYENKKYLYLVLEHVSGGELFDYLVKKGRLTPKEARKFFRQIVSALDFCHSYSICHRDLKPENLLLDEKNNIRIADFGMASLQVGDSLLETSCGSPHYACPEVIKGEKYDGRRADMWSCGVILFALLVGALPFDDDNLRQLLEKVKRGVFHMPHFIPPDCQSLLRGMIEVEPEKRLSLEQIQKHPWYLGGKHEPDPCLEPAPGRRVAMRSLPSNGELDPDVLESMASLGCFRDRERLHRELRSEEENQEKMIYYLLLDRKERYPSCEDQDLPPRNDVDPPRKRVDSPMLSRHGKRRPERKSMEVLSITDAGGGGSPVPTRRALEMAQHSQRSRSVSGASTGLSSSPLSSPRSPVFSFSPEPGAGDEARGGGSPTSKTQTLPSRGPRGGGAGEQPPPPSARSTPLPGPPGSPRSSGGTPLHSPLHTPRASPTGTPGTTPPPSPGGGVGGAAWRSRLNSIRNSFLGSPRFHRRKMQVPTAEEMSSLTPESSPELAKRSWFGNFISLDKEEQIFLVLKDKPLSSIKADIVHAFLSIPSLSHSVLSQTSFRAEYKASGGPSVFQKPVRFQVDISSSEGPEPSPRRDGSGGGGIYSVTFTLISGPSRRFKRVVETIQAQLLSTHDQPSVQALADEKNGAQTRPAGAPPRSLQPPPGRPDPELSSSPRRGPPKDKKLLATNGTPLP

[2] = biological target: Cyclin-dependent kinase-like 4 (Homo sapiens) (UniProt Q5MAI5)
[3] = biological target: Serine/threonine-protein kinase 35 (Homo sapiens) (UniProt Q8TDR2)
[4] = biological target: Mitogen-activated protein kinase kinase kinase kinase 4 (Homo sapiens) (UniProt O95819)
[5] = biological target: T2, Tyrosine-protein kinase receptor TYRO3 (Homo sapiens) (UniProt Q06418)
T2 sequence (whole entry): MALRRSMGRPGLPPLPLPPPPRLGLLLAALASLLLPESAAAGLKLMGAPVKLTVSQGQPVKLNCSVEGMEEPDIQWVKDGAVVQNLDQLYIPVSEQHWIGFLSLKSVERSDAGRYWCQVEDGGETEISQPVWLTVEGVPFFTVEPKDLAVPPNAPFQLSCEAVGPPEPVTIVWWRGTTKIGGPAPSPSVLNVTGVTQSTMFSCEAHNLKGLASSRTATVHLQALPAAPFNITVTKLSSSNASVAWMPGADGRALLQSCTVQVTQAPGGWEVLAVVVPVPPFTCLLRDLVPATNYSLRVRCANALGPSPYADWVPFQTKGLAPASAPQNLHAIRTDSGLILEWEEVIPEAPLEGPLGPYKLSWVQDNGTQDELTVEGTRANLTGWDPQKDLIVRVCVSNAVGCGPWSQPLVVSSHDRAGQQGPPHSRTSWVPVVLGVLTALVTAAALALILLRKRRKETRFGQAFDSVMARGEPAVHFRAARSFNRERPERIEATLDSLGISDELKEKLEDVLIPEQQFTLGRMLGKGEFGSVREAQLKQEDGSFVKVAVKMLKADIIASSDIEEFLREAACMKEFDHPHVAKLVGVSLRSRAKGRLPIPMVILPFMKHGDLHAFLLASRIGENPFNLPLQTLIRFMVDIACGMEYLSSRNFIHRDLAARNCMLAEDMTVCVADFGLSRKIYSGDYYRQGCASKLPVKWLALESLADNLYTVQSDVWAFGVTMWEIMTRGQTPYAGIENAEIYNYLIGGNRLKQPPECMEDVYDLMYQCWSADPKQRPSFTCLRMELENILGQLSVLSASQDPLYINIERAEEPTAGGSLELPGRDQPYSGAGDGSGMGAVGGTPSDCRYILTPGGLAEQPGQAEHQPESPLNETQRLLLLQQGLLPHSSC

[6] = biological target: T3, Serine/threonine-protein kinase tousled-like 1 (Homo sapiens) (UniProt Q9UKI8)
T3 sequence (whole entry): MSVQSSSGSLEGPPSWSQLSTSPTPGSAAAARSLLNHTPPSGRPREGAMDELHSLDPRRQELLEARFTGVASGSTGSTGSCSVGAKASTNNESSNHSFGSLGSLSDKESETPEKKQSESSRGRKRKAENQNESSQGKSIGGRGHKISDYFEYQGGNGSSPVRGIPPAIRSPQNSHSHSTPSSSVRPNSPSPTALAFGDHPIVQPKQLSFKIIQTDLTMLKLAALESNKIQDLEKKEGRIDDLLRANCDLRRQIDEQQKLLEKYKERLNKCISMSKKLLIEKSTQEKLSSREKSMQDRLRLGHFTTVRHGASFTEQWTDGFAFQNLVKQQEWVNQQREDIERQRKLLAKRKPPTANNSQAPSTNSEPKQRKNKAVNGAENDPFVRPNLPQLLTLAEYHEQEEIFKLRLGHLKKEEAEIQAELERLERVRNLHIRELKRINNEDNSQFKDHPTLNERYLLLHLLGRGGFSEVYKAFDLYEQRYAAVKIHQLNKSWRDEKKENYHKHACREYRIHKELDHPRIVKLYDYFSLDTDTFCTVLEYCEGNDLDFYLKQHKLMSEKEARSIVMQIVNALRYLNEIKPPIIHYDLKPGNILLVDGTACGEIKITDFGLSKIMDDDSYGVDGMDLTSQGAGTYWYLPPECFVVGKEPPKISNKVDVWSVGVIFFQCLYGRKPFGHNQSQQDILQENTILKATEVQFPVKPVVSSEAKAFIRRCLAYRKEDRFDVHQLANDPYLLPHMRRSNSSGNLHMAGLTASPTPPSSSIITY

[7] = biological target: Tribbles homolog 2 (Homo sapiens) (UniProt Q92519)
[8] = biological target: T4, Testis-specific serine/threonine-protein kinase 3 (Homo sapiens) (UniProt Q96PN8)
T4 sequence (whole entry): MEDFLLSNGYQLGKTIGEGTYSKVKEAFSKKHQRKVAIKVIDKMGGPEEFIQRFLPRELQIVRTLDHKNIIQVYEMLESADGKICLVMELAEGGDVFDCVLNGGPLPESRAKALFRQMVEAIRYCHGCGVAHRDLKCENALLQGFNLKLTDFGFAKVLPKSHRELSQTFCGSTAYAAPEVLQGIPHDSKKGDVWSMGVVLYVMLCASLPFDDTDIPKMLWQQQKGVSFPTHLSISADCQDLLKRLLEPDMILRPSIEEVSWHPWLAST

Measured: % residual kinase activity

Sequence of Serine/threonine-protein kinase 35 (Homo sapiens) (Q8TDR2 whole entry): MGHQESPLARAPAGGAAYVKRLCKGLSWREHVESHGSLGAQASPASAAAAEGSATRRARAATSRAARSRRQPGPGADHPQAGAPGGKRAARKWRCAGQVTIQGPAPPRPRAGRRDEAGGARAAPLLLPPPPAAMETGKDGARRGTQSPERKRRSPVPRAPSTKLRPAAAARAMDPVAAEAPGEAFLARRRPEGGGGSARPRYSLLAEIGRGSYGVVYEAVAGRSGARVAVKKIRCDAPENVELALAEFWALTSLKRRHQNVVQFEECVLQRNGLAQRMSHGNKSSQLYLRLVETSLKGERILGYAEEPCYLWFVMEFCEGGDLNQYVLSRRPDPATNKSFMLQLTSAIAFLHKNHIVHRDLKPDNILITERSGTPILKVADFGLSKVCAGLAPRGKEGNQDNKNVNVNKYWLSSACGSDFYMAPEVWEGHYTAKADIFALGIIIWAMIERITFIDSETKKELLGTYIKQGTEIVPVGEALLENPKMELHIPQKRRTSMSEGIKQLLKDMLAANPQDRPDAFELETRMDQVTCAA
Sequence of Mitogen-activated protein kinase kinase kinase kinase 4 (Homo sapiens) (O95819 2-1239 limits assumed): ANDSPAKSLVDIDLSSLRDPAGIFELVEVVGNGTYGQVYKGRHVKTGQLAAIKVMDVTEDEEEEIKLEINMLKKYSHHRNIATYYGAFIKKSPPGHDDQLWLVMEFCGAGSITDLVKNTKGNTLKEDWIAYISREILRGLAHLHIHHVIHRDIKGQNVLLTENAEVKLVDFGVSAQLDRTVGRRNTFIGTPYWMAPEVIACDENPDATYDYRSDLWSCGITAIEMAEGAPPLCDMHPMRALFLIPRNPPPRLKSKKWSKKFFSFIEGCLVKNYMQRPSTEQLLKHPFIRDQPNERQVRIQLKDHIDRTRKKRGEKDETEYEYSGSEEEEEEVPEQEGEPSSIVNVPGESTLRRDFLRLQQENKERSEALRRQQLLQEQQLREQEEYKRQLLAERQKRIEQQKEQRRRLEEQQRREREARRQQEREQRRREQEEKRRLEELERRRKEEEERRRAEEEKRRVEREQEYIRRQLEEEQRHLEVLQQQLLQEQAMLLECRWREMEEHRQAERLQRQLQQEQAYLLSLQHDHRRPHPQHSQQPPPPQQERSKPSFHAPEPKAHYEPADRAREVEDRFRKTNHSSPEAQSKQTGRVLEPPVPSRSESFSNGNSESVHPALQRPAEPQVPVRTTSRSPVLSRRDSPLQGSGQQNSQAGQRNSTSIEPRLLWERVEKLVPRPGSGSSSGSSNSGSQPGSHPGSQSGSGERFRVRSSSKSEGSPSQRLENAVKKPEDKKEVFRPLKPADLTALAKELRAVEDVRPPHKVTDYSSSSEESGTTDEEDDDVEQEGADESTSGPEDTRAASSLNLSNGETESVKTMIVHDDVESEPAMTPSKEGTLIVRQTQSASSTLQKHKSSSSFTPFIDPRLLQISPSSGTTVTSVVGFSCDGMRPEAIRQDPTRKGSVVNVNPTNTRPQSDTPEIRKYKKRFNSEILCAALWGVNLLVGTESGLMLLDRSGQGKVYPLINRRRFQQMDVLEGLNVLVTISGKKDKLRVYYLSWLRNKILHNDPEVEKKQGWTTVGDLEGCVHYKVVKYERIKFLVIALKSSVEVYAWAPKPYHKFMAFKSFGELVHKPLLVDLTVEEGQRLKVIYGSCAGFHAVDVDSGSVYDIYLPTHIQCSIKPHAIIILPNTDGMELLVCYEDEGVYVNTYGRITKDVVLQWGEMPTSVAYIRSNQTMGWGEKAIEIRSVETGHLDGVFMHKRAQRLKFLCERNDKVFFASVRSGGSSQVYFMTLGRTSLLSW
Sequence of Tribbles homolog 2 (Homo sapiens) (Q92519 whole entry): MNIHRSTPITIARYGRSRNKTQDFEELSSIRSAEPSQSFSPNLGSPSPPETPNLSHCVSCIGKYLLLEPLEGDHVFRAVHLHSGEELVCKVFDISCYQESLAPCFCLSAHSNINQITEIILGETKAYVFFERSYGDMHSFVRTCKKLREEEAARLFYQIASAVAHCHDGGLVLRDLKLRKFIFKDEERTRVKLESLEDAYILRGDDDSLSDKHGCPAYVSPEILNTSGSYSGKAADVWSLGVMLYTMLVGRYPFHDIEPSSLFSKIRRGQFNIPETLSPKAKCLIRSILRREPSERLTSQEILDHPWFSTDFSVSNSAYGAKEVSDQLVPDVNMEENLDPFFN
Sequence of Cyclin-dependent kinase-like 4 (Homo sapiens) (Q5MAI5 whole entry): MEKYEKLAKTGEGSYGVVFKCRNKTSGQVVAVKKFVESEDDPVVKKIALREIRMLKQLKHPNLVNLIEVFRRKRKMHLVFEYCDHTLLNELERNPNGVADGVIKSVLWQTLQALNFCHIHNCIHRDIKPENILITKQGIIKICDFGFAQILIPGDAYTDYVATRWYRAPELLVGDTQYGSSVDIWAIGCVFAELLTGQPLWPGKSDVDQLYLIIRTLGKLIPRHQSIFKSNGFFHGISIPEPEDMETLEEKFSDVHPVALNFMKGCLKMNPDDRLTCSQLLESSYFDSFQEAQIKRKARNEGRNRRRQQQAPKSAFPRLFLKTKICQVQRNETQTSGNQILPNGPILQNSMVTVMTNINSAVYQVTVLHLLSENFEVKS

CN1CCN(c2cnc3c(C4CCN(C(=O)c5ccc(OC(F)(F)F)cc5N)CC4)ncnc3c2)CC1 [BAY-885]
inactive: [1] 104% | [2] 103% | [3] 116% | [4] 99% | [5] 100% | [6] 106% | [7] 109% | [8] 108%
